# Measurements as given in patent US9364459B2, “3-(indolyl)- or 3-(azaindolyl)- 4-arylmaleimide derivatives for use in the treatment of colon and gastric adenocarcinoma” (Johannes Gutenberg-Universität Mainz, priority 2009, dated 2016).
# Experiments:
# HCT-116 = test: Nicoletti apoptosis assay in HCT-116 cells; format: cell-based, human
# Description: (§1) Nicoletti Apoptosis Assay by Cell Cycle Analysis
# (§2) Cancer cells were transferred to 12-well flat-bottomed plates. […] Subsequently, cells were incubated in 1 ml medium containing various concentrations of test compounds at 37° C. with 5% CO2. After incubation the cells were washed with PBS, trypsinized, pelleted and mixed with PI buffer (containing 0.1% sodium citrate, 0.1% triton X-100, […] propidium iodide (PI)) and incubated for 1 hour at 4° C. Cell cycle sub-G1 fraction analysis was performed as described previously (Nicoletti, I. et al. (1991) J. Immunol. Methods 139, 271-279) using a flow cytometer (BD FACS Calibur™, BD Biosciences, Heidelberg, Germany). Each experiment was done in triplicate.
# HUVEC = test: Nicoletti apoptosis assay (sub-G1 fraction) in HUVEC; format: cell-based, human; settings: 4 days, untreated 15.4 ± 1.5%
# Description: as §1, §2
# The same analysis was performed with HUVEC cells. 1.5×10^4 cells were plated into each well and treated with test compounds for 4 days.
# Human Umbilical Vein Endothelial Cells (HUVEC) known for mitogenic specifity for VEGF were obtained from the Department of Pathology, University Hospital of Mainz, Germany. The cells were cultured in M199 supplemented with 20% FCS, 1% Pen/Strep, 0.34% GlutaMAX-I, 25 μg/ml Endothelial Cell Growth Supplement (BD Biosciences), 25 μg/ml Heparin sodium (179 USP units/mg; Sigma, Germany) and were maintained at 37° C. and 5% CO2.
# [1] = tested on: chick embryo microvessel formation; test: Quantitative chick embryo in vivo assay of antiangiogenic activity; settings: Gallus gallus; 26 nM drug concentration/pellet; 24 hours incubation; read-out: Inhibition of microvessel area
# Description: Evaluation of Antiangiogenic Activity in a Quantitative Chick Embryo In Vivo Assay
# The inhibition of angiogenesis (new blood vessel formation) was measured as described in WO2006/061212.
# HT-29 = test: Nicoletti apoptosis assay in HT-29 cells; format: cell-based, human; settings: for Activity in combination with irinotecan relative to compound A, in words: HT-29 cells
# Description: as §1, §2
# MKN-45 = test: Nicoletti apoptosis assay in MKN-45 cells; format: cell-based, human
# Description: as §1, §2
# FLT-3 = FLT-3 (Homo sapiens (Human), UniProt P36888); test: FLT-3 kinase inhibition assay (Millipore IC50Profiler); format: biochemical
# Description: (§3) GSK-3β, VEGFR-2, FLT-3 Kinase Inhibition Assays
# The effect of test compounds on the activity of the protein kinases GSK-3β, VEGFR-2 and FLT-3 was evaluated based on half maximal inhibitory concentration (IC50) values determined by Millipore UK Ltd; Gemini Crescent; Dundee Technology Park; Dundee DD2 1SW; UK (IC50Profiler). Detailed protocols can be found at: www.millipore.com/drugdiscovery/dd3/assayprotocols.
# SW480 = test: Nicoletti apoptosis assay in SW480 cells; format: cell-based, human
# Description: as §1, §2
# GSK-3β = GSK-3β (Homo sapiens (Human), UniProt P49841); test: GSK-3β kinase inhibition assay (Millipore IC50Profiler); format: biochemical
# Excerpt: as §3
# (§4) Detailed protocols can be found at: www.millipore.com/drugdiscovery/dd3/assayprotocols.
# Caco-2 = test: Nicoletti apoptosis assay in Caco-2 cells; format: cell-based, human
# Description: as §1, §2
# [2] = tested on: HT-29 human colon adenocarcinoma cells; test: MTT viability assay in HT-29 cells; settings: HT-29, 72 h, read-out: Viability of HT-29 cells as determined by MTT assay
# Description: Evaluation of Effect on Viability (MTT Assay)
# The antiproliferative activity of test compounds was determined by the 3-(4,5-dimethylthiazol-2-yl)-2,5-diphenyltetrazolium bromide (MTT) assay as described previously (Mosmann, T. et al. (1983) J. Immunol. Methods 65, 55-63). Cells in the exponential growth phase were transferred to 96-well flat-bottom plates. 10,000 viable cells contained in 200 μl cell suspension were plated into each well and incubated over night. Cells were then exposed to various concentrations of test compounds (100 μl/well) for 3 days at 37° C. with 5% CO2. Subsequently, 10 μl/well MTT stock solution (5 mg/ml; Biomol, Germany) was added and the cells were incubated at 37° C. with 5% CO2 for 4 hours. 100 μl solubilization solution (10% SDS in 0.01 M HCl) was added and the cells were incubated at 37° C. with 5% CO2 over night. Plates were read on an ELISA-Reader ELX 800 (BIO-TEK Software KC 4) at 562 nm absorbance. Each experiment was done in triplicate.
# HCT-116, HT-29 and SW480 cells were cultured in RPMI1640 supplemented with 10% FCS. […] All cells were maintained at 37° C. and 5% CO2.
# VEGFR-2 = VEGFR-2 (Homo sapiens (Human), UniProt P35968); test: VEGFR-2 kinase inhibition assay (Millipore IC50Profiler); format: biochemical; settings: for VEGFR-2 IC50 values, in words: Table 2
# Excerpt: as §3, §4
# [3] = Table 6, 7.9 μM comp. A plus 1.18 μM irinotecan
# [4] = Table 6, 7.9 μM compound A alone
# [5] = Table 8, HT-29, 7.9 μM test compound alone, drug-free control 3.4 ± 0.9%
# [6] = Table 8, HT-29, 7.9 μM test compound plus 1.18 μM irinotecan
# [7] = Table 7, 7.9 μM compound A alone
# [8] = Table 7, 7.9 μM compound A plus 20 nM topotecan
# [9] = Table 6, 1.18 μM irinotecan alone
# FLT-3, sequence (P36888 27-993): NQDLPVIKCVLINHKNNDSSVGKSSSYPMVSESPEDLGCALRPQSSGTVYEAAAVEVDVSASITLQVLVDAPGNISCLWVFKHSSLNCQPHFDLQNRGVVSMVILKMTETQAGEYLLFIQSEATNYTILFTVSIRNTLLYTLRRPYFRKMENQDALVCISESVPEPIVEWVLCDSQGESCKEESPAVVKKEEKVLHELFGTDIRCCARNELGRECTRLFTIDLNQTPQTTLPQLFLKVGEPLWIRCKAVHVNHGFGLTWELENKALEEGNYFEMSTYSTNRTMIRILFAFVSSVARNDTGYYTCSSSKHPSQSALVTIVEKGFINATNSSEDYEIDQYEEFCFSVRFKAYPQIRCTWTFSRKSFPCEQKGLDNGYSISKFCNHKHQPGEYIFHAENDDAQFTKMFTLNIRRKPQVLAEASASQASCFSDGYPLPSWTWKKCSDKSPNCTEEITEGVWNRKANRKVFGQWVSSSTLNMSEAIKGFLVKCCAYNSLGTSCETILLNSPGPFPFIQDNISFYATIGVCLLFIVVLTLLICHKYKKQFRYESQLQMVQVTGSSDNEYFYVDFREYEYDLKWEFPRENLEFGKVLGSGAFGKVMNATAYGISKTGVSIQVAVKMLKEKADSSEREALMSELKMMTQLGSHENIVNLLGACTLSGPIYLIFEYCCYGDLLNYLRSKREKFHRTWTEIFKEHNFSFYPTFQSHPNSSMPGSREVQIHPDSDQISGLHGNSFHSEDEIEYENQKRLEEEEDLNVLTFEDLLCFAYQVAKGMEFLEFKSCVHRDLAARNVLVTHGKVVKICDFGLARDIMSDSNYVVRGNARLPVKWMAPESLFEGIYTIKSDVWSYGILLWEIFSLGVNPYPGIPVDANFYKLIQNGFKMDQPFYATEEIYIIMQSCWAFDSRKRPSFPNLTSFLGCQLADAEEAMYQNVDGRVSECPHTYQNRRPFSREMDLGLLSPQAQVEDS
# GSK-3β, sequence (P49841 whole entry): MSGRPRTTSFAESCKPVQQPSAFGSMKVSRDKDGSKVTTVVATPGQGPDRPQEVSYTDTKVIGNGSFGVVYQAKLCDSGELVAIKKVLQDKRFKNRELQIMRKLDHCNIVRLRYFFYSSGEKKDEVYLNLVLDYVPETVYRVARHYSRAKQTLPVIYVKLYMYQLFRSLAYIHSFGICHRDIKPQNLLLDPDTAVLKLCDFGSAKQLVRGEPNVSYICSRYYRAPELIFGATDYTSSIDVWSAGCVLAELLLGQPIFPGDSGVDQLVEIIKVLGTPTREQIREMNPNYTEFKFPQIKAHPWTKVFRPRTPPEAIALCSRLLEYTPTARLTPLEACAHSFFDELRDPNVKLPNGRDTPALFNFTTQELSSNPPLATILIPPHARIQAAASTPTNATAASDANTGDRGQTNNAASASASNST
# VEGFR-2, sequence (P35968 20-1356): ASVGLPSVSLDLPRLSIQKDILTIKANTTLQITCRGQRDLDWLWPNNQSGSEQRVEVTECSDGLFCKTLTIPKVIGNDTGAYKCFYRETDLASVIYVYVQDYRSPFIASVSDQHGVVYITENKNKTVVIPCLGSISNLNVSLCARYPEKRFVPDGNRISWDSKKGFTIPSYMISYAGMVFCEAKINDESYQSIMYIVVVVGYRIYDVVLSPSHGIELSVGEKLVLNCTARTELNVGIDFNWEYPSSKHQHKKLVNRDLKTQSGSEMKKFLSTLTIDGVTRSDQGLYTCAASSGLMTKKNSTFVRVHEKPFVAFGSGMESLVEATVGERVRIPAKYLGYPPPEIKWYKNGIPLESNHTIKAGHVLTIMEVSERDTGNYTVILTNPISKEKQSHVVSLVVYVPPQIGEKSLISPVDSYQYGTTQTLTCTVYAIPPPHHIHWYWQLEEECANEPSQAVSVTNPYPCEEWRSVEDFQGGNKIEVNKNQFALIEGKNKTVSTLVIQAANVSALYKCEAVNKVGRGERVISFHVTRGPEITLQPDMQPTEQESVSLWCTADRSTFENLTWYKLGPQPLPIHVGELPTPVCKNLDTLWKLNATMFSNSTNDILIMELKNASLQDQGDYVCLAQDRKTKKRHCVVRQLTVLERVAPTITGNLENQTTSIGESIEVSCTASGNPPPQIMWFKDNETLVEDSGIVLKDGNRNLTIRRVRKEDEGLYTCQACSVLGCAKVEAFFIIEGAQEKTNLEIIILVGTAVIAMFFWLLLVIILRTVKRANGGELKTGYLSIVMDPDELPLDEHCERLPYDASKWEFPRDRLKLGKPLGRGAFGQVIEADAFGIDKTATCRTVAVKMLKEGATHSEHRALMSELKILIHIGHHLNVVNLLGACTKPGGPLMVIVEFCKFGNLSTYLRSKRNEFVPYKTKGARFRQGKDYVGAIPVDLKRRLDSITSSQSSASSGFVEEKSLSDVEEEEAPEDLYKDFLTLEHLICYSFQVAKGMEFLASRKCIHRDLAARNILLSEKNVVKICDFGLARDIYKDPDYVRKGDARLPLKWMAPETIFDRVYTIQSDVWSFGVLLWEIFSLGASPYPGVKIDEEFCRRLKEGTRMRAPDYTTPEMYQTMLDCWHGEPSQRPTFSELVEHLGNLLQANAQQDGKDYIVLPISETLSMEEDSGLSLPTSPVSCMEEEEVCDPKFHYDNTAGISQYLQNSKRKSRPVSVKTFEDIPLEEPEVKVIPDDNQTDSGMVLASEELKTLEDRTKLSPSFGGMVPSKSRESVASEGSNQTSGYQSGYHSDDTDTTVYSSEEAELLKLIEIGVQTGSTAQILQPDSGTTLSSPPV
smiles,measurement,setting,value
"COc1cc(C2=C(c3c[nH]c4ccccc34)C(=O)NC2=O)cc(OC)c1OC [A, 3-(1H-indol-3-yl)-4-(3,4,5-trimethoxyphenyl)-maleinimid]","Combined effect of compound A and low dosed irinotecan on apoptosis, in words",HCT-116,Significant synergistic effects
same,Sub-G1 Fraction,HCT-116; [3],27.90 ± 3.4%
same,Sub-G1 Fraction,HCT-116; [4],3.70 ± 2.8%
same,Sub-G1 Fraction,HUVEC; 0.79 μM,25. ± 0.9%
same,Sub-G1 Fraction,HUVEC; 2.6 μM,87.7 ± 2.3%
same,Sub-G1 Fraction,HUVEC; 7.9 μM,88.9 ± 4.0%
same,inhibition at 0.026 µM,[1],82%
same,"Combined effect of compound A and low dosed irinotecan on apoptosis, in words",HT-29; HT-29,Significant synergistic effects
same,"Combined effect of compound A and topotecan on apoptosis, in words",HT-29; HT-29,synergistically inhibited apoptosis
same,"Induction of apoptosis in combination with irinotecan compared with vandetanib or sunitinib, in words","HT-29; HT-29, 7 days combination treatment with irinotecan",greater induction of apoptosis
same,Sub-G1 Fraction,"HT-29; Table 6, HT-29, 7.9 μM comp. A plus 1.18 μM irinotecan",57.40 ± 1.6%
same,Sub-G1 Fraction,"HT-29; Table 6, HT-29, 7.9 μM compound A alone",5.90 ± 0.6%
same,Sub-G1 Fraction,"HT-29; Table 7, HT-29, 7.9 μM compound A alone",5.9 ± 0.6%
same,Sub-G1 Fraction,"HT-29; Table 7, HT-29, 7.9 μM compound A plus 20 nM topotecan",65.6 ± 1.8%
same,Sub-G1 Fraction,HT-29; [5],4.70 ± 0.50%
same,Sub-G1 Fraction,HT-29; [6],53.10 ± 3.30%
same,Sub-G1 Fraction,"HT-29; Table 9, HT-29, 7.9 μM compound A plus 1.18 μM Irinotecan, 7 days",49.8 ± 1.30%
same,Sub-G1 Fraction,"HT-29; Table 9, HT-29, single-agent treatment, 7.9 μM compound A, 7 days",8.9 ± 0.8%
same,Sub-G1 Fraction,MKN-45; [3],51.44 ± 0.2%
same,Sub-G1 Fraction,MKN-45; [4],20.16 ± 1.6%
same,Sub-G1 Fraction,MKN-45; [7],20.2 ± 1.6%
same,Sub-G1 Fraction,MKN-45; [8],61.1 ± 1.2%
same,IC50,FLT-3,166 nM
same,"FLT-3 inhibition, in words",FLT-3; Table 2,most significantly inhibited
same,"Combined effect of compound A and low dosed irinotecan on apoptosis, in words",SW480,Significant synergistic effects
same,Sub-G1 Fraction,SW480; [3],32.21 ± 0.40%
same,Sub-G1 Fraction,SW480; [4],9.96 ± 2.3%
same,Sub-G1 Fraction,SW480; [7],10 ± 2.3%
same,Sub-G1 Fraction,SW480; [8],38.81 ± 0.88%
same,IC50,GSK-3β,1100 nM
same,"Combined effect of compound A and low dosed irinotecan on apoptosis, in words",Caco-2,Significant synergistic effects
same,Sub-G1 Fraction,Caco-2; [3],43.70 ± 2.2%
same,Sub-G1 Fraction,Caco-2; [4],6.00 ± 2.3%
same,Sub-G1 Fraction,Caco-2; [7],5.9 ± 0.6%
same,Sub-G1 Fraction,Caco-2; [8],52.07 ± 2.84%
same,viability at 2.6 µM,[2],78.5 ± 3.7%
same,viability at 7.9 µM,[2],62.9 ± 1.5%
same,viability at 26 µM,[2],53.9 ± 4.8%
same,viability at 52 µM,[2],42.8 ± 1.6%
same,IC50,VEGFR-2,90 nM
same,"VEGFR-2 IC50 values, in words",VEGFR-2,low nanomolar range
"COc1cc(C2=C(c3c[nH]c4ccncc34)C(=O)NC2=O)cc(OC)c1OC [Compound D, 3-(5-Azaindol-3-yl)-4-(3,4,5-trimethoxyphenyl)-maleinimid]",Sub-G1 Fraction,HUVEC; 0.79 μM,25.7 ± 1.2%
same,Sub-G1 Fraction,HUVEC; 2.6 μM,70.2 ± 2.7%
same,Sub-G1 Fraction,HUVEC; 7.9 μM,79.9 ± 3.8%
same,inhibition at 0.026 µM,[1],69%
same,Sub-G1 Fraction,HT-29; [5],21.51 ± 2.89%
same,Sub-G1 Fraction,HT-29; [6],47.53 ± 0.47%
same,IC50,FLT-3,6270 nM
same,IC50,GSK-3β,50 nM
same,"GSK-3β IC50 values, in words",GSK-3β; Table 2,low nanomolar range
same,viability at 2.6 µM,[2],62.21 ± 0.33%
same,viability at 7.9 µM,[2],64.2 ± 0.76%
same,viability at 26 µM,[2],39.6 ± 1.9%
same,viability at 52 µM,[2],19.2 ± 0.26%
same,IC50,VEGFR-2,23 nM
same,"VEGFR-2 IC50 values, in words",VEGFR-2,low nanomolar range
"COc1cc(C2=C(c3c[nH]c4ccc(F)cc34)C(=O)NC2=O)cc(OC)c1OC [O, 3-(5-Fluoro-1H-indol-3-yl)-4-(3,4,5-trimethoxyphenyl)-maleinimide]",Sub-G1 Fraction,HUVEC; 0.79 μM,16.0 ± 1.2%
same,Sub-G1 Fraction,HUVEC; 2.6 μM,73.3 ± 3.2%
same,Sub-G1 Fraction,HUVEC; 7.9 μM,90.6 ± 5.4%
same,melting point,,232 to 233 °C
same,inhibition at 0.026 µM,[1],63%
same,"Activity in combination with irinotecan relative to compound A, in words",HT-29,at least comparable with compound A
same,Sub-G1 Fraction,HT-29; [5],3.26 ± 2.14%
same,Sub-G1 Fraction,HT-29; [6],49.69 ± 2.96%
same,viability at 2.6 µM,[2],47.83 ± 0.34%
same,viability at 7.9 µM,[2],35.5 ± 0.71%
same,viability at 26 µM,[2],42.1 ± 0.58%
same,viability at 52 µM,[2],17.6 ± 1.81%
same,IC50,VEGFR-2,182 nM
"COc1cc(C2=C(c3c[nH]c4ccc(Br)cc34)C(=O)NC2=O)cc(OC)c1OC [P, 3-(5-Bromo-1H-indol-3-yl)-4-(3,4,5-trimethoxyphenyl)-maleinimide]",Sub-G1 Fraction,HUVEC; 0.79 μM,24.0 ± 1.9%
same,Sub-G1 Fraction,HUVEC; 2.6 μM,31.6 ± 2.0%
same,Sub-G1 Fraction,HUVEC; 7.9 μM,54.4 ± 3.2%
same,melting point,,259 to 262 °C
same,inhibition at 0.026 µM,[1],35%
same,"Activity in combination with irinotecan relative to compound A, in words",HT-29,at least comparable with compound A
same,Sub-G1 Fraction,HT-29; [5],1.81 ± 0.36%
same,Sub-G1 Fraction,HT-29; [6],55.00 ± 0.33%
same,viability at 2.6 µM,[2],37.83 ± 0.19%
same,viability at 7.9 µM,[2],20.6 ± 0.35%
same,viability at 26 µM,[2],7.07 ± 1.37%
same,viability at 52 µM,[2],8.68 ± 0.37%
"CCc1c2c(nc3ccc(OC(=O)N4CCC(N5CCCCC5)CC4)cc13)-c1cc3c(c(=O)n1C2)COC(=O)[C@]3(O)CC [irinotecan, reference compound]",Sub-G1 Fraction,HCT-116; [9],9.86 ± 2.4%
same,Sub-G1 Fraction,"HT-29; Table 6, HT-29, 1.18 μM irinotecan alone",17.40 ± 0.98%
same,Induction of apoptosis under irinotecan single application (Sub-G1 Fraction),"HT-29; Table 8, HT-29",Induction of apoptosis under irinotecan single application 18.3 ± 1.1%
same,Induction of apoptosis under irinotecan single application (Sub-G1 Fraction),"HT-29; Table 9, HT-29",Induction of apoptosis under irinotecan single application 17.4 ± 0.6%
same,Sub-G1 Fraction,MKN-45; [9],28.97 ± 1.15%
same,Sub-G1 Fraction,SW480; [9],9.61 ± 0.91%
same,Sub-G1 Fraction,Caco-2; [9],18.80 ± 0.8%
"CC[C@@]1(O)C(=O)OCc2c1cc1n(c2=O)Cc2cc3c(CN(C)C)c(O)ccc3nc2-1 [topotecan, reference compound]",Sub-G1 Fraction,"HT-29; Table 7, HT-29, 20 nM topotecan alone",7.9 ± 0.8%
same,Sub-G1 Fraction,"MKN-45; Table 7, 20 nM topotecan alone",26.15 ± 0.49%
same,Sub-G1 Fraction,"SW480; Table 7, 20 nM topotecan alone",13.34 ± 0.3%
same,Sub-G1 Fraction,"Caco-2; Table 7, 20 nM topotecan alone",31.5 ± 0.08%
